# Assay results from article PMC9654546, “Identification of an IGF2BP2-Targeted Peptide for Near-Infrared Imaging of Esophageal Squamous Cell Carcinoma” (Molecules, 2022).
# Ends that are not written are not given here. Cy5 = Cy5 fluorescent dye
# Columns and labels:
# KYSE-30 xenografts = test: Near-infrared fluorescence imaging and ex vivo biodistribution in KYSE-30 bearing xenograft models; design: species or system mice
# Procedure: Human esophageal cancer cell lines EC-9706, EC-109, and TE-1 were acquired from the Institute of Basic Medical Science, Chinese Academy of Medical Sciences, whereas KYSE-30, KYSE-410, KYSE-450, and KYSE-520 were obtained from the DSMZ (Deutsche Sammlung von Mikroorganismen und Zellkulturen). All cells were maintained in an incubator containing a humid atmosphere of 5% CO2 at 37 °C. All cells were cultured in RPMI-1640 medium supplemented with 10% fetal bovine serum (FBS) and penicillin-streptomycin solution. Mice aged 4 weeks were purchased from Guangdong Medical Laboratory Animal Center (Guangdong, China). Subcutaneous tumor models were constructed by subcutaneously injection of about 1 × 10^7 cells with a 20% suspension of Matrigel (Corning, NY, USA). All animal experiments were performed under a protocol approved by the Animal Ethics Committee of The Fifth Affiliated Hospital of Sun Yat-sen University.
# Mice bearing subcutaneous esophageal tumors were injected with an equivalent of 50 μg Cy5-peptide via a tail vein. After circulation, the mice were anesthetized with isoflurane, and fluorescence images were captured at different time points of 10 min, 1 h, 2 h, 4 h, and 6 h by an IVIS Spectrum (PerkinElmer, MA, USA) with an excitation wavelength of 640 nm and an emission wavelength of 670 nm. The region of interest (ROI) was manually sketched to calculate the intensity of the fluorescence as mean fluorescence intensity (MFI). In addition, the tumors and main organs (bladder, liver, heart, lungs, stomach, spleen, skin, kidneys, colon, muscles, bones, and blood) were dissected and imaged for biodistribution analysis.
# KYSE-30 cells [1] = test: Immunofluorescence staining (confocal) of cells with Cy5 conjugated peptides; type: cell-based, human; conditions: IGF2BP2-positive KYSE-30 cells, fixed and permeabilised, Cy5 conjugated peptide 80 μM overnight at 4 °C
# Procedure: Approximately 5 × 10^4 cells were seeded onto fibronectin-coated coverslips in 24-well plates and fixed with 4% paraformaldehyde until the cells reached about 50% confluence. After permeabilization with 0.5% Triton X-100 (Millipore, MA, USA) for 10 min, the cells were blocked with 5% BSA for 0.5 h and subsequently incubated with Cy5 conjugated peptides at a concentration of 80 μM overnight at 4 °C. The next day, 1 μg/mL of diaminophenyl indole (DAPI) was added to stain the nucleus after washing with phosphate-buffered saline (PBS). Thereafter, the coverslips were mounted with ProLong Gold anti-fade (Invitrogen P26930, CA, USA), and the visualizations were conducted using confocal laser-scanning microscopy (Zeiss LSM880, Oberkochen, Germany).
# KYSE-30 cells [2] = test: Flow cytometry of cells incubated with Cy5 conjugated peptides; type: cell-based, human; conditions: Cy5 conjugated peptide 50 μM, 15 min, room temperature, 10,000 gated cells
# Procedure: When the cells in the 6 cm dish were 80–90% grown, they were harvested with Accutase (Sigma-Aldrich, MO, USA) and incubated with Cy5 conjugated peptides at a concentration of 50 μM for 15 min at room temperature, protected from light. After incubation, the cells were washed 3 times with ice-cold PBS and resuspended in 200 µL of PBS. Flow cytometry was performed on a CytoFLEX LX flow cytometer (Beckman Coulter, IN, USA) and eventually, 10,000 gated cells were collected for analysis. The results were finally analyzed by flow cytometry using Flow Jo software (v7.6, BD Biosciences, OR, USA).
# [3] = target: recombinant IGF2BP2 protein (approximately 29 kDa) (human); test: ELISA; phage ELISA; purified IGF2BP2 protein coated on a 96-well plate, phage clones after the third round of screening, OD at 450 nm
# [4] = KYSE-30 xenograft mice, 50 μg Cy5-peptide via tail vein, ROI quantification, n = 3
# [5] = ex vivo optical imaging of tumors and main organs 2 h postinjection, 50 μg i.v., n = 3
Molecule,Binding to IGF2BP2-positive tumors (immunofluorescence of frozen tumor sections after imaging) (KYSE-30 xenografts; KYSE-30 tumor tissue resected after imaging),TBRs over time (KYSE-30 xenografts; [4]),Time at which mean fluorescence intensity (MFI) peaked (KYSE-30 xenografts; [4]) [h],"Tumor accumulation in NIRF imaging in comparison to C12-Cy5 (KYSE-30 xenografts; KYSE-30 xenograft mice, 50 μg Cy5-peptide via tail vein, different time points postinjection, n = 3)","Uptake in kidney relative to other organs (KYSE-30 xenografts; biodistribution, KYSE-30 xenograft mice)",Clearance route from biodistribution (KYSE-30 xenografts; [5]),Enrichment in KYSE-30 tumors relative to organs (biodistribution) (KYSE-30 xenografts; [5]),Binding / fluorescence in confocal immunocytochemistry (KYSE-30 cells [1]),Peak shift in flow cytometric analysis (KYSE-30 cells [2]),OD value (450 nm) relative to the control (times that of the control) [3]
P12-Cy5: P12 peptide conjugated to arginine-penetrating peptide (RRRRRRRR) at the C-terminus and Cy5 fluorescent group at the N-terminus (Cy5-LSMPWSPTTYASRRRRRRRR; also: linker between P12 and R8 not defined),strong binding,gradually increasing over time,2,significantly higher tumor accumulation,"relatively higher in the kidney than in other organs, including the tumors",prominent renal clearance,high in all organs except the urinary organs,strong binding in the cytoplasm,peak shift,
LSMPWSPTTYAS [P12 peptide (…) displayed on phage],,,,,,,,,,10
